Measurements: ChEMBL document CHEMBL1201862, “PubChem BioAssay data set” (2004)
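These data come from cells grown in 96-well plates and exposed to compound for 48 hours at five concentrations. At the GI50, growth is halved.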 Calls of active or inactive are those of the source. Rule as the data show it: active = GI50 up to about 1.1 µM and inactive = higher.

Assays:
Test in all cases: NCI anticancer screen, dose series, 48 h
BT-549 = tested on: BT-549
DU-145 = tested on: DU-145
EKVX = tested on: EKVX
HOP-62 = tested on: HOP-62
IGROV-1 = tested on: IGROV-1
MCF7 = tested on: MCF7
MDA-MB-435 = tested on: MDA-MB-435
MDA-N = tested on: MDA-N
NCI-H226 = tested on: NCI-H226
NCI-H460 = tested on: NCI-H460
NCI/ADR-RES = tested on: NCI/ADR-RES
OVCAR-8 = tested on: OVCAR-8
PC-3 = tested on: PC-3
SK-MEL-28 = tested on: SK-MEL-28
SNB-75 = tested on: SNB-75
SW-620 = tested on: SW-620
UACC-257 = tested on: UACC-257
UACC-62 = tested on: UACC-62
M19-MEL = tested on: M19-MEL
DMS-114 = tested on: DMS-114

CC(C)NC(=O)OCCN=C1c2ccccc2C(Br)C(Br)c2ccccc21 (centres undefined)
GI50 (BT-549): 10.4 µM (inactive) | GI50 (DU-145): 6.98 µM (inactive) | GI50 (EKVX): 9.06 µM (inactive) | GI50 (HOP-62): 14.5 µM (inactive) | GI50 (IGROV-1): 2.66 µM (inactive) | GI50 (MCF7): 12.1 µM (inactive) | GI50 (MDA-MB-435): 7.96 µM (inactive) | GI50 (MDA-N): 5.85 µM (inactive) | GI50 (NCI-H226): 15.6 µM (inactive) | GI50 (NCI-H460): 10.4 µM (inactive) | GI50 (NCI/ADR-RES): 16 µM (inactive) | GI50 (OVCAR-8): 8 µM (inactive) | GI50 (PC-3): 11.6 µM (inactive) | GI50 (SK-MEL-28): 13.2 µM (inactive) | GI50 (SNB-75): 8.04 µM (inactive) | GI50 (SW-620): 3.76 µM (inactive) | GI50 (UACC-257): 7.35 µM (inactive) | GI50 (UACC-62): 10.1 µM (inactive)

CC(=O)CC[N+](C)(C)C
GI50 (BT-549): 35 µM (inactive) | GI50 (DU-145): 88.5 µM (inactive) | GI50 (EKVX): 17.7 µM (inactive) | GI50 (HOP-62): > 100 µM (inactive) | GI50 (IGROV-1): 37.3 µM (inactive) | GI50 (M19-MEL): 23.3 µM (inactive) | GI50 (MCF7): 30.3 µM (inactive) | GI50 (MDA-MB-435): 37.8 µM (inactive) | GI50 (MDA-N): 40.7 µM (inactive) | GI50 (NCI-H226): 53 µM (inactive) | GI50 (NCI-H460): 65.8 µM (inactive) | GI50 (NCI/ADR-RES): 38.9 µM (inactive) | GI50 (OVCAR-8): 33.5 µM (inactive) | GI50 (PC-3): 76.9 µM (inactive) | GI50 (SK-MEL-28): 28.5 µM (inactive) | GI50 (SNB-75): 29 µM (inactive) | GI50 (SW-620): 4.06 µM (inactive) | GI50 (UACC-257): 25.8 µM (inactive) | GI50 (UACC-62): 26.8 µM (inactive)

N#CC(c1ccccc1)N(CCc1ccccc1)C(=O)c1ccccc1 (centres undefined)
GI50 (BT-549): > 56.2 µM (inactive) | GI50 (DU-145): > 100 µM (inactive) | GI50 (EKVX): > 77.4 µM (inactive) | GI50 (HOP-62): 34 µM (inactive) | GI50 (IGROV-1): > 74 µM (inactive) | GI50 (MCF7): > 100 µM (inactive) | GI50 (MDA-MB-435): > 100 µM (inactive) | GI50 (MDA-N): > 100 µM (inactive) | GI50 (NCI-H226): > 58.7 µM (inactive) | GI50 (NCI-H460): > 100 µM (inactive) | GI50 (NCI/ADR-RES): 42.9 µM (inactive) | GI50 (OVCAR-8): 38.7 µM (inactive) | GI50 (PC-3): > 93.8 µM (inactive) | GI50 (SK-MEL-28): > 100 µM (inactive) | GI50 (SNB-75): 12.7 µM (inactive) | GI50 (SW-620): > 100 µM (inactive) | GI50 (UACC-257): > 100 µM (inactive) | GI50 (UACC-62): 51.2 µM (inactive)

Cc1cc(C)nc(NS(=O)(=O)c2ccc(NC(=O)c3cccc4c(Nc5ccc(S(=O)(=O)Nc6nc(C)cc(C)n6)cc5)c5ccccc5nc34)cc2)n1
GI50 (EKVX): 24.2 µM (inactive) | GI50 (HOP-62): 21 µM (inactive) | GI50 (IGROV-1): 32.8 µM (inactive) | GI50 (M19-MEL): 29.5 µM (inactive) | GI50 (NCI-H460): 32 µM (inactive) | GI50 (OVCAR-8): 24.7 µM (inactive) | GI50 (SK-MEL-28): 14.6 µM (inactive) | GI50 (SNB-75): 3.44 µM (inactive) | GI50 (SW-620): 28.1 µM (inactive) | GI50 (UACC-257): 23 µM (inactive) | GI50 (UACC-62): 19.1 µM (inactive)

CN(C)CC(C)(C)C(/C=C/c1ccccc1)=N\Nc1ccccc1
GI50 (DMS-114): 4.25 µM (inactive) | GI50 (EKVX): 0.378 µM (active) | GI50 (HOP-62): 2.77 µM (inactive) | GI50 (IGROV-1): 0.723 µM (active) | GI50 (M19-MEL): 10 µM (inactive) | GI50 (NCI-H460): 0.659 µM (active) | GI50 (OVCAR-8): 12.8 µM (inactive) | GI50 (SK-MEL-28): 1.89 µM (inactive) | GI50 (SNB-75): 14.6 µM (inactive) | GI50 (SW-620): 0.375 µM (active) | GI50 (UACC-257): 10.3 µM (inactive) | GI50 (UACC-62): 0.0527 µM (active)

O=C1/C(=C/c2ccc([N+](=O)[O-])cc2)CNC/C1=C\c1ccc([N+](=O)[O-])cc1
GI50 (BT-549): 2.69 µM (inactive) | GI50 (DU-145): 10.8 µM (inactive) | GI50 (EKVX): 9.86 µM (inactive) | GI50 (HOP-62): 4.55 µM (inactive) | GI50 (IGROV-1): 1.84 µM (inactive) | GI50 (MCF7): 2.74 µM (inactive) | GI50 (MDA-MB-435): 10.4 µM (inactive) | GI50 (MDA-N): 6.27 µM (inactive) | GI50 (NCI-H226): 15 µM (inactive) | GI50 (NCI-H460): 2.59 µM (inactive) | GI50 (NCI/ADR-RES): 5.09 µM (inactive) | GI50 (OVCAR-8): 3.13 µM (inactive) | GI50 (PC-3): 6.7 µM (inactive) | GI50 (SK-MEL-28): 1.82 µM (inactive) | GI50 (SNB-75): 2.6 µM (inactive) | GI50 (SW-620): 0.638 µM (active) | GI50 (UACC-257): 45.5 µM (inactive) | GI50 (UACC-62): 12.3 µM (inactive)

COc1nc2c(c(=O)n1C)N(C(C)=O)C1C(N2)OCC(OC(C)=O)C1OC(C)=O (centres undefined)
GI50 (BT-549): > 10 µM (inactive) | GI50 (DU-145): > 10 µM (inactive) | GI50 (EKVX): > 10 µM (inactive) | GI50 (HOP-62): > 10 µM (inactive) | GI50 (IGROV-1): > 10 µM (inactive) | GI50 (MCF7): > 10 µM (inactive) | GI50 (MDA-MB-435): > 10 µM (inactive) | GI50 (MDA-N): > 10 µM (inactive) | GI50 (NCI-H226): > 10 µM (inactive) | GI50 (NCI-H460): > 10 µM (inactive) | GI50 (NCI/ADR-RES): > 10 µM (inactive) | GI50 (OVCAR-8): > 10 µM (inactive) | GI50 (PC-3): > 10 µM (inactive) | GI50 (SK-MEL-28): > 10 µM (inactive) | GI50 (SNB-75): > 10 µM (inactive) | GI50 (SW-620): > 10 µM (inactive) | GI50 (UACC-257): > 10 µM (inactive) | GI50 (UACC-62): > 10 µM (inactive)

CC1OC(=O)N2CCC=CC12 (centres undefined)
GI50 (DMS-114): > 100 µM (inactive) | GI50 (EKVX): > 100 µM (inactive) | GI50 (IGROV-1): > 100 µM (inactive) | GI50 (M19-MEL): > 100 µM (inactive) | GI50 (NCI-H226): > 100 µM (inactive) | GI50 (NCI-H460): > 100 µM (inactive) | GI50 (OVCAR-8): > 100 µM (inactive) | GI50 (SK-MEL-28): > 100 µM (inactive) | GI50 (SNB-75): > 100 µM (inactive) | GI50 (SW-620): > 100 µM (inactive) | GI50 (UACC-257): > 100 µM (inactive) | GI50 (UACC-62): > 100 µM (inactive)

C[N+]1(C)C(c2ccccc2)C(=O)O[B@-]1(F)c1ccccc1 (some centres undefined)
GI50 (BT-549): > 100 µM (inactive) | GI50 (DU-145): > 100 µM (inactive) | GI50 (EKVX): > 100 µM (inactive) | GI50 (HOP-62): > 100 µM (inactive) | GI50 (IGROV-1): > 100 µM (inactive) | GI50 (MCF7): > 100 µM (inactive) | GI50 (MDA-MB-435): > 100 µM (inactive) | GI50 (MDA-N): > 100 µM (inactive) | GI50 (NCI-H226): > 100 µM (inactive) | GI50 (NCI-H460): > 100 µM (inactive) | GI50 (NCI/ADR-RES): > 100 µM (inactive) | GI50 (OVCAR-8): > 100 µM (inactive) | GI50 (PC-3): > 100 µM (inactive) | GI50 (SK-MEL-28): > 100 µM (inactive) | GI50 (SNB-75): 60.3 µM (inactive) | GI50 (SW-620): > 100 µM (inactive) | GI50 (UACC-257): > 100 µM (inactive) | GI50 (UACC-62): > 100 µM (inactive)
